This passage reports IC50 and EC50 results from US20250042900A1 (priority 2022, published 2025).

Counter-ions that a name gives are not always drawn.

For test [1], the target named is N-methyl-D-aspartate (NMDA) Glutamate Receptor 1A/2B (NMDAR (1A/2B)) (Homo sapiens, UniProt Q05586+Q13224). In words: Ion channel assay, blocker format. Type of test: cell-based. The conditions noted are these: read-out: IC50 (μM) Antag./Blocker/Inhibitor.
Test [2] deals with Opioid Receptor Mu (OPRM1) (Homo sapiens, UniProt P35372). Description: cell-based. The conditions noted are these: cAMP, antagonist, read-out: IC50 (μM) Antag./Blocker/Inhibitor.
Chain of Opioid Receptor Mu (OPRM1) (P35372 whole entry): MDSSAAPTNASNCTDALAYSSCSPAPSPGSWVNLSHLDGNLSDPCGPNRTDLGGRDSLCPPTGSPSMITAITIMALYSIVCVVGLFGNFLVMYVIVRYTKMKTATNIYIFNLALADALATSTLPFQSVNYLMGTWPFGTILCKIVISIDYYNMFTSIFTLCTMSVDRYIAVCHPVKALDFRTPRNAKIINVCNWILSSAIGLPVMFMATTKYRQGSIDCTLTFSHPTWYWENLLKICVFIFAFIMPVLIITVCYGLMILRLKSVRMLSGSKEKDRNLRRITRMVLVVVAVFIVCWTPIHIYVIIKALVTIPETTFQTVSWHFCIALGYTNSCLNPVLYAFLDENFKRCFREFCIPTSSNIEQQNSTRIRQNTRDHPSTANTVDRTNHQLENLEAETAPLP
The target of test [3] is CAV1.2 (Voltage-gated L-type calcium channel) (Homo sapiens, UniProt Q13936). In words: Ion channel assay, blocker format. In kind it is cell-based. The conditions noted are these: read-out: IC50 (μM) Antag./Blocker/Inhibitor.
The target of test [4] is Nuclear Hormone Glucocorticoid Receptor (GR) (Homo sapiens, UniProt P04150). Description: NHR Protein Interaction assay, antagonist format. The settings on record: read-out: IC50 (μM) Antag./Blocker/Inhibitor. Type of test: cell-based.
Chain of Nuclear Hormone Glucocorticoid Receptor (GR) (P04150 whole entry): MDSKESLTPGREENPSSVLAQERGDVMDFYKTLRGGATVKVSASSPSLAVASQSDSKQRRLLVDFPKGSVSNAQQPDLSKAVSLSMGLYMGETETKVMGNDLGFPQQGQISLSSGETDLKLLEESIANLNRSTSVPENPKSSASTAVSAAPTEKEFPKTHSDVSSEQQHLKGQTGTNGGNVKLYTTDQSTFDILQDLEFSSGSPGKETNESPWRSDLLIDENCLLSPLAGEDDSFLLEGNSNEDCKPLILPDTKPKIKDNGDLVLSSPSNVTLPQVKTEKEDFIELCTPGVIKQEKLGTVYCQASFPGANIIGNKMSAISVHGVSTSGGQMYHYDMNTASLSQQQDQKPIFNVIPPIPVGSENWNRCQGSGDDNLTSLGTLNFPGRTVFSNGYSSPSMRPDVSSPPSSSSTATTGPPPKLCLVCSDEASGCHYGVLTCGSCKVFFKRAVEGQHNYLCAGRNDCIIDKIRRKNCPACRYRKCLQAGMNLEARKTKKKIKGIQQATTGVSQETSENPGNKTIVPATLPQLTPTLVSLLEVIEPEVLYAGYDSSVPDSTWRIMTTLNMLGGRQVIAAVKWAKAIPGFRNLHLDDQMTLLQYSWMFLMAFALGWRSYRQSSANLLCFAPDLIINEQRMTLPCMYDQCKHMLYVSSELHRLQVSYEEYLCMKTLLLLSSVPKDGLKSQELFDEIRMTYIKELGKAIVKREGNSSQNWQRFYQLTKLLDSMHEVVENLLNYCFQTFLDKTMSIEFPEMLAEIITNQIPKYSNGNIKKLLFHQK
Test [5] concerns the target T1, Cannabinoid Receptor 1 (CNR1) (Homo sapiens, UniProt P21554). Description: cAMP secondary messenger assay, agonist format. The settings on record: read-out: EC50 (μM) Agonist/Opener. In kind it is cell-based.
The target in test [6] is Arginine Vasopressin Receptor 1A (AVPR1A) (Homo sapiens, UniProt P37288). Description: Calcium flux secondary messenger assay, antagonist format. Type of test: cell-based. The conditions noted are these: read-out: IC50 (μM) Antag./Blocker/Inhibitor. For orientation: A change in cytosolic calcium serves as a functional read-out for many receptors and channels.
Chain of Arginine Vasopressin Receptor 1A (AVPR1A) (P37288 whole entry): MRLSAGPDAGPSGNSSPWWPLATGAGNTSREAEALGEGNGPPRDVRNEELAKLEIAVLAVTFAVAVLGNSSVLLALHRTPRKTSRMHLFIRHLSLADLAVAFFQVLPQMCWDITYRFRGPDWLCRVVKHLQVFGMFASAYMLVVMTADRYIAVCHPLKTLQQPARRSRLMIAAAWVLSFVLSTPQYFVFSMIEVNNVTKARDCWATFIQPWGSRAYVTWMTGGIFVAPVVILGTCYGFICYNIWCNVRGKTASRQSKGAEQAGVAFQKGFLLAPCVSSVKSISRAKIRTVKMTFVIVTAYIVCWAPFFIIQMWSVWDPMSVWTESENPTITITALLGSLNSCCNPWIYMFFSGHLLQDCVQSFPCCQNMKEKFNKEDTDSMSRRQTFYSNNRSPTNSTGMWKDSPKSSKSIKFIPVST
The target of test [7] is Muscarinic acetylcholine Receptor M2 (CHRM2) (Homo sapiens, UniProt P08172). Description: cAMP secondary messenger assay, antagonist format. Type of test: cell-based. The conditions noted are these: read-out: IC50 (μM) Antag./Blocker/Inhibitor.
Chain of Muscarinic acetylcholine Receptor M2 (CHRM2) (P08172 whole entry): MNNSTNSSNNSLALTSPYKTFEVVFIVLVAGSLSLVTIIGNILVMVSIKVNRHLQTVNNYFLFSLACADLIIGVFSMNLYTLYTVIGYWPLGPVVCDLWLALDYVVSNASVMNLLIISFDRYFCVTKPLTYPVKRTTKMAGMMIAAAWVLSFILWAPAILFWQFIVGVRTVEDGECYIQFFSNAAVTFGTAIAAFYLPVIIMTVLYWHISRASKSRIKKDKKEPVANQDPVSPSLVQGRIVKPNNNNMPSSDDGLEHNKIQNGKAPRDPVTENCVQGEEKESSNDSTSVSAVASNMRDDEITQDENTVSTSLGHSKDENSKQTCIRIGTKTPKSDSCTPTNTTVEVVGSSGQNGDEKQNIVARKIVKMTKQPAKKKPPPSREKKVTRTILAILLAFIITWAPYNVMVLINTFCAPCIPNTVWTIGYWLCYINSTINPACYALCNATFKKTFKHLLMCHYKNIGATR
Test [8] addresses Dopamine Receptor D2 (DRD2S) (Homo sapiens, UniProt P14416). In words: cAMP secondary messenger assay, antagonist format. In kind it is cell-based. The settings on record: read-out: IC50 (μM) Antag./Blocker/Inhibitor.
Test [9] deals with T2, 5-Hydroxytryptamine (Serotonin) Receptor 1A (5-HT1A) (Homo sapiens, UniProt P08908).
T2 construct: host or cells: cAMP Hunter cell line
T2 sequence (P08908 whole entry): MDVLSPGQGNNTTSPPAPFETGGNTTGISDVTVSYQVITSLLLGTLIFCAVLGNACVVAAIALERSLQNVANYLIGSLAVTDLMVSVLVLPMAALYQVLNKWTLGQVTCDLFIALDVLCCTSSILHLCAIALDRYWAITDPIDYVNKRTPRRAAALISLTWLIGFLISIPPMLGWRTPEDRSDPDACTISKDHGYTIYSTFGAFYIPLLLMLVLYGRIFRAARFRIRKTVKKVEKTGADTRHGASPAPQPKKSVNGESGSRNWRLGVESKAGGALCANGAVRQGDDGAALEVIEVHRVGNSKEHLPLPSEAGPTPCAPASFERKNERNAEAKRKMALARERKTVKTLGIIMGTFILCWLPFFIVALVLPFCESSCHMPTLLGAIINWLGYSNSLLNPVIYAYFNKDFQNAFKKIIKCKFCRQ
Description: cAMP secondary messenger assay, antagonist format. The settings on record: read-out: IC50 (μM) Antag./Blocker/Inhibitor. In kind it is cell-based.

In a further test the target is hERG (Homo sapiens, UniProt Q12809). Description: Ion channel assay, blocker format. In kind it is cell-based. The conditions noted are these: read-out: IC50 (μM) Antag./Blocker/Inhibitor.
Chain of hERG (Q12809 whole entry): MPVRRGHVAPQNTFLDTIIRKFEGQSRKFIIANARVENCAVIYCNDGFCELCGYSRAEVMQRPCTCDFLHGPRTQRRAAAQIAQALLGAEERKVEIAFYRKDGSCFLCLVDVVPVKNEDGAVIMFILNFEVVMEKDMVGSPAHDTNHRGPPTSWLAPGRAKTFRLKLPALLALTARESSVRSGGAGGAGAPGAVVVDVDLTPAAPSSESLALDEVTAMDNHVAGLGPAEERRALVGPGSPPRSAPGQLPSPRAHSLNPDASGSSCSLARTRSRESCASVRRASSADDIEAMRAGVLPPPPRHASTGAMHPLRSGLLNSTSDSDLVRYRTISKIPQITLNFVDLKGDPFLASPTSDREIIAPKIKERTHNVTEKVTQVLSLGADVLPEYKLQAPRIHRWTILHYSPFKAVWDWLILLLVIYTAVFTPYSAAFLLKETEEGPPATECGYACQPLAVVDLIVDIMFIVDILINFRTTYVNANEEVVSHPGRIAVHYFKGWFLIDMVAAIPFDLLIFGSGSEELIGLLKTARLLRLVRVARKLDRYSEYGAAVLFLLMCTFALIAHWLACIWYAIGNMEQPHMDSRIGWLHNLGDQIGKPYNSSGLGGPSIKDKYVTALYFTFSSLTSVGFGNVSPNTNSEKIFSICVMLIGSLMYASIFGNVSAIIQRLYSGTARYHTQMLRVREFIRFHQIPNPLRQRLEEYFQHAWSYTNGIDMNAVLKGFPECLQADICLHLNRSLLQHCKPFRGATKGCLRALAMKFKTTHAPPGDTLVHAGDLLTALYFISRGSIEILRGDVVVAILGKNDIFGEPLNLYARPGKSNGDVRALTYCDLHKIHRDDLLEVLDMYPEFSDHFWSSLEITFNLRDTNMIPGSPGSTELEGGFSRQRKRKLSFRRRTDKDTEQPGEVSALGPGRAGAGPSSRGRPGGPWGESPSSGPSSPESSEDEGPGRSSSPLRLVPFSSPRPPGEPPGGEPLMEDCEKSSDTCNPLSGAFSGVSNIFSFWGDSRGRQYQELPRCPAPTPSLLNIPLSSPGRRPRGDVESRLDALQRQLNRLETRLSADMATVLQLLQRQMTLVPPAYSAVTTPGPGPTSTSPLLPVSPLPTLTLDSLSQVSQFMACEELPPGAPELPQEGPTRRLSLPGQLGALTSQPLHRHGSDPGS
A further test has as its target T3, MAOA (Homo sapiens, UniProt P21397).
T3 construct: purchased Sigma
In words: Enzymatic assay MAOA. In kind it is biochemical. The settings on record: inhibitor, read-out: IC50 (μM) Antag./Blocker/Inhibitor.

In test [10] the target is T1, Cannabinoid Receptor 1 (CNR1). Description: cAMP secondary messenger assay, antagonist format. Type of test: cell-based. The settings on record: read-out: IC50 (μM) Antag./Blocker/Inhibitor.
Test [11] deals with T2, 5-Hydroxytryptamine (Serotonin) Receptor 1A (5-HT1A). Description: cAMP secondary messenger assay, agonist format. Type of test: cell-based. The conditions noted are these: read-out: EC50 (μM) Agonist/Opener.
Test [12] concerns the target Opioid Receptor Kappa 1 (OPRK1) (Homo sapiens, UniProt P41145). In words: cAMP secondary messenger assay, antagonist format. Type of test: cell-based. The settings on record: read-out: IC50 (μM) Antag./Blocker/Inhibitor.

T1 sequence (P21554 whole entry): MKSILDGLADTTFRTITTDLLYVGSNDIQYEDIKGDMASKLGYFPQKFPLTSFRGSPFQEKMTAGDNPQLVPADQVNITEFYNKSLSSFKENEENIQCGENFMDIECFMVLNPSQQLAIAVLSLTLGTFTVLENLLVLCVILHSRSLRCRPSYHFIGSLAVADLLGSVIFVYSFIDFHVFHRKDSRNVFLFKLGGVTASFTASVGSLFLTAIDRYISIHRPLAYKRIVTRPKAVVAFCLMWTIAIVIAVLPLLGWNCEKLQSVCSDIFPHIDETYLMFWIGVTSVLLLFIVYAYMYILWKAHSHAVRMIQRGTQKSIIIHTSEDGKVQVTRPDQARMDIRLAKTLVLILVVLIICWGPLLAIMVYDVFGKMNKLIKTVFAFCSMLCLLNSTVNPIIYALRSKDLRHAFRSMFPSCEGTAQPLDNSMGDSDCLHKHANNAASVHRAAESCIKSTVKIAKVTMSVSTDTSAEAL
T3 sequence (P21397 whole entry): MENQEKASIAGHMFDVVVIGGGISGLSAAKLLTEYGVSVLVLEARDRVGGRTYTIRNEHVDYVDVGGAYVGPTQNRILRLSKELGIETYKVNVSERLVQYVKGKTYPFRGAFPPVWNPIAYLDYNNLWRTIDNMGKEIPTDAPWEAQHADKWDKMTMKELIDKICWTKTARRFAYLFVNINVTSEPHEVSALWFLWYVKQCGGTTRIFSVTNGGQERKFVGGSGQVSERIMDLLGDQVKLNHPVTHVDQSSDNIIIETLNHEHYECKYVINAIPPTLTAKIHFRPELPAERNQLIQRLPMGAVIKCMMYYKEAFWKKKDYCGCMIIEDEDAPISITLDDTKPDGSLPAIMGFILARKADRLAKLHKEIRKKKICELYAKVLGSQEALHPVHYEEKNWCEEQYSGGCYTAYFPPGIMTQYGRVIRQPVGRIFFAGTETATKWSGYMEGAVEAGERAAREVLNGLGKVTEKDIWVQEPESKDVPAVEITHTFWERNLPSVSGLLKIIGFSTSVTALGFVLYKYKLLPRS
Chain of Opioid Receptor Kappa 1 (OPRK1) (P41145 whole entry): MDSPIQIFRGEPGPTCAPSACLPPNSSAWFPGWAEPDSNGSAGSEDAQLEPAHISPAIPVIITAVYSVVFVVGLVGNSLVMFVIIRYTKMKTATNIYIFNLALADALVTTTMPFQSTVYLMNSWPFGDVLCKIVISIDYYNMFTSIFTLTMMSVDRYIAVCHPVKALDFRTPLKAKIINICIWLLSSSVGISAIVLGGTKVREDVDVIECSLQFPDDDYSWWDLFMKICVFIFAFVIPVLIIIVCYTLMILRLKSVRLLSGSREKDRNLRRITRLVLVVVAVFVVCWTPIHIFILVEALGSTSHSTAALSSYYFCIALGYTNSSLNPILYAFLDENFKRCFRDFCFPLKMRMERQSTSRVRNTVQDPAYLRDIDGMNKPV

In the case of `CN(C)CCc1ccn2ccccc12` [28-12 oxalate, 2-(indolizin-1-yl)-N, N-dimethylethan-1-amine oxalate], the IC50 in [1] was more than 30 µM; in test [2], more than 30 µM; in [3] it was more than 30 µM; in test [4], 17.1 µM; in [6], more than 30 µM; in [7], more than 30 µM. The IC50 was 22.3 µM in test [8]; more than 30 µM in [9]; more than 30 µM on hERG; 7.25 µM on MAOA; more than 30 µM in test [10]; more than 30 µM in test [12]. The EC50 in test [5] and in [11] was more than 30 µM in each case.
